Measurements reported in patent US20160199365A1, “2-Carboxamide Cycloamino Urea Derivatives in Combination with HSP90 Inhibitors for the Treatment of Proliferative Diseases” (Novartis AG, priority 2011, published 2016).
Where two headings read alike, the source gives them in different places.

Key:
[1] = system: HGC-27 subcutaneous xenografts (human gastric carcinoma cells, PIK3CA mutation, PTEN null); assay: HGC-27 gastric cancer xenograft model in female athymic nude mice (Example 1); conditions: for mean change of tumor volume: mean±SEM
Protocol: (§1) Experiments are performed in female Hsd:Athymic Nude-FoxN1^nu Nude mice approximately 8-12 weeks of age at treatment start.
(§2) HGC-27 cells, which are human gastric carcinoma cells with a PIK3CA mutation (c1624G>A, p.E542K) and PTEN null, are grown in MEM culture medium containing 1% non-essential amino acid with 10% heat-inactivated FCS, and are incubated at 37° C. in a 5% CO2 humidified atmosphere.
(§3) HGC-27 tumors are established in vivo by injection 5×10^6 cells in 200 μl (100 μl PBS+100 μl Matrigel) (Cat #354234, BD Bioscience, Bedford, Mass.) subcutaneous into the right flank of the animals. The efficacy experiments are started when the tumors reach an average size of approximately 230 mm^3 (day 12 post cell injection).
(§4) Compound A is formulated in 0.5% Methylcellulose (MC). 80 mg of Compound A is added to 16 ml of 0.5% MC, then stirred/vortexed and sonicated in water bath sonicator for 1 h to obtain 5 mg/ml homogeneous suspension. 0.5% MC is used to dilute the 5 mg/ml solution to 2.5 mg/ml and 1.25 mg/ml for dosing. Compound A or vehicle is administered orally at a volume of 10 ml/kg.
(§5) Tumor volumes are measured with calipers and determined according to the formula: length×diameter^2×π/6. Antitumor activity is expressed as T/C % which is determined according to the formula: (mean change of tumor volume of treated animals/mean change of tumor volume of control animals)×100. Regressions (%) are calculated according to the formula ((mean tumor volume at end of treatment-mean tumor volume at start of treatment)/mean tumor volume at start of treatment)×100. Body weights and tumor volumes are recorded twice a week.
(§6) Where applicable, data is presented as mean±SEM. For all tests, the level of significance is set at p<0.05. For tumor volumes, comparisons between treatment groups and vehicle control group are done using one-way ANOVA followed by Dunnett's test. Tumor volumes comparisons between treatment groups are done using Kruskal-Wallis one way ANOVA post-hoc Student Newman Kuels test or Dunn's test. In the first experiment, Compound A is orally administered daily to HGC-27 subcutaneous xenografts, tumor-bearing nude mice at a dose of 12.5 mg/kg, 25 mg/kg and 50 mg/kg.

[2] = system: KYSE-70 tumors (esophageal squamous cell carcinoma cells); assay: KYSE-70 esophageal squamous cell carcinoma xenograft model (Example 4); type: in vivo, mice
Protocol: KYSE-70 tumors are established by injecting 7.5×10^6 KYSE-70 cells, which are esophageal squamous cell carcinoma cells, in 100 μl cell suspension, with a 23 gauge needle subcutaneously on the right flank of the mice. Ten (10) days after implantation, […]. When tumors are established and reach about 156 mm^3 (minimum 86 mm^3, maximum 218 mm^3) approximately 10 days after implantation, 48 animals are selected and randomized into 6 treatment groups (n=8). Placebo control is formulated as 10 ml/kg of 250 μl NMP, 750 μl PEG300, 500 μl Solutol HS15, and 1000 μl water for delivery once daily per oral (Placebo 1) and as 10 ml/kg of 2.5 ml Glucose for delivery intravenously twice a week (Placebo 2). Compound A is formulated in NMP/PEG300/Solutol HS15/water (10:30:20:40% vol/vol). The compound is fully dissolved in NMP first and water is added immediately prior to administration to animals. […] All doses of AUY922 refer to the free base equivalent. AUY922 is administered iv at a volume of 10 ml/kg, twice a week.

[3] = system: NCI-N87 tumors (human gastric carcinoma cells); assay: NCI-N87 gastric cancer xenograft model, first experiment (Example 3); type: in vivo, mice
Protocol: Cells are harvested with trypsin (0.25% w/v)-EDTA (0.53 mM), are re-suspended in culture medium (with additives) and are counted with a Casy® system. Cell culture reagents are purchased from BioConcept (Allschwil, Switzerland). NCI-N87 tumors are established by injecting […] to 1×10^7 cells (in HBSS containing 50% v/v Matrigel) subcutaneously with a 23 Gauge needle. When tumors are established and reach between 180 and 210 mm^3, animals are randomized into treatment groups and the treatments are initiated. Compound A is formulated in NMP/PEG300/Solutol HS15/water (10:30:20:40% vol/vol) The compound is fully dissolved in NMP first and water is added immediately prior to administration to animals. […] All doses of AUY922 refer to the free base equivalent. AUY922 is administered iv at a volume of 10 ml/kg, twice a week. […] Pairwise comparisons are done using a one way ANOVA followed by Tukey's test. The level of significance of body weight change within a group between start and end of the treatment period is determined using a paired t-test. […] Calculations are performed using GraphPad Prism 4 for windows (GraphPad Software Inc.). In addition, an approximation of drug interactions is made using the method described by Clarke R., “Issues in experimental design and endpoint analysis in the study of experimental cytotoxic agents in vivo in breast cancer and other models”, Breast Cancer Res. Treat, 46, 255-78 (1997). This is applied to MV (Tumor volume). Female athymic nude mice are treated orally once a day with 50 mg/kg Compound A, alone or in combination with 50 mg/kg of AUY922 administered intravenously twice a week. […] For compound A, B or the combination AB (with Vehicle Control group C), antagonism is predicted when the calculation AB/C>A/C×B/C, additive effect: AB/C=A/C×B/C, synergistic interactions are predicted to occur when AB/C<[…].

[4] = system: NCI-N87 tumors (human gastric carcinoma cells); assay: NCI-N87 gastric cancer xenograft model, second experiment (Example 3); type: in vivo, mice; conditions: single agent
Protocol: Cells are harvested with trypsin (0.25% w/v)-EDTA (0.53 mM), are re-suspended in culture medium (with additives) and are counted with a Casy® system. Cell culture reagents are purchased from BioConcept (Allschwil, Switzerland). NCI-N87 tumors are established by injecting […] to 1×10^7 cells (in HBSS containing 50% v/v Matrigel) subcutaneously with a 23 Gauge needle. When tumors are established and reach between 180 and 210 mm^3, animals are randomized into treatment groups and the treatments are initiated. Compound A is formulated in NMP/PEG300/Solutol HS15/water (10:30:20:40% vol/vol) The compound is fully dissolved in NMP first and water is added immediately prior to administration to animals. […] All doses of AUY922 refer to the free base equivalent. AUY922 is administered iv at a volume of 10 ml/kg, twice a week. […] Pairwise comparisons are done using a one way ANOVA followed by Tukey's test. The level of significance of body weight change within a group between start and end of the treatment period is determined using a paired t-test. […] Calculations are performed using GraphPad Prism 4 for windows (GraphPad Software Inc.). In addition, an approximation of drug interactions is made using the method described by Clarke R., “Issues in experimental design and endpoint analysis in the study of experimental cytotoxic agents in vivo in breast cancer and other models”, Breast Cancer Res. Treat, 46, 255-78 (1997). This is applied to MV (Tumor volume).

[5] = system: NCI-N87 tumors (human gastric carcinoma cells); assay: NCI-N87 gastric cancer xenograft model, third experiment (Example 3); type: in vivo, mice; conditions: single agent
Protocol: Cells are harvested with trypsin (0.25% w/v)-EDTA (0.53 mM), are re-suspended in culture medium (with additives) and are counted with a Casy® system. Cell culture reagents are purchased from BioConcept (Allschwil, Switzerland). NCI-N87 tumors are established by injecting […] to 1×10^7 cells (in HBSS containing 50% v/v Matrigel) subcutaneously with a 23 Gauge needle. When tumors are established and reach between 180 and 210 mm^3, animals are randomized into treatment groups and the treatments are initiated. Compound A is formulated in NMP/PEG300/Solutol HS15/water (10:30:20:40% vol/vol) The compound is fully dissolved in NMP first and water is added immediately prior to administration to animals. […] All doses of AUY922 refer to the free base equivalent. AUY922 is administered iv at a volume of 10 ml/kg, twice a week. […] Pairwise comparisons are done using a one way ANOVA followed by Tukey's test. The level of significance of body weight change within a group between start and end of the treatment period is determined using a paired t-test. […] Calculations are performed using GraphPad Prism 4 for windows (GraphPad Software Inc.). In addition, an approximation of drug interactions is made using the method described by Clarke R., “Issues in experimental design and endpoint analysis in the study of experimental cytotoxic agents in vivo in breast cancer and other models”, Breast Cancer Res. Treat, 46, 255-78 (1997). This is applied to MV (Tumor volume). In the third efficacy experiment, the tumor model is set up as in the second experiment.

[6] = system: HGC-27 subcutaneous xenografts; assay: HGC-27 gastric cancer xenograft model, treatment from day 20 for 14 days (Example 2); type: in vivo, mice
From the text: The procedure described in Example 1 is followed with the following modifications: Treatments are initiated on day 20 following tumor cell implantation of 5 million HCG-27 cells, when the average tumor volume is 316 mm^3 (164-485 mm^3).

[7] = Stability of Compound A dosing formulation; type: physicochemical; conditions: room temperature
Protocol: Compound A is formulated in NMP/PEG300/Solutol HS15/water (10:30:20:40% vol/vol) The compound is fully dissolved in NMP first and water is added immediately prior to administration to animals.
Compound A is formulated in NMP/PEG300/Solutol HS15/water (10:30:20:40% vol/vol). The compound is fully dissolved in NMP first and water is added immediately prior to administration to animals.

[8] = system: HGC-27 subcutaneous xenografts (human gastric carcinoma cells, PIK3CA mutation, PTEN null); conditions: mouse, in vivo, po
Protocol: as §1, §2, §3, §4, §5, §6

[9] = AUY922 50 mg/kg i.v. twice a week
[10] = Group 4: 50 mg/kg AUY922 intravenous twice a week
[11] = Group 2: 12.5 mg/kg Compound A per oral once daily
[12] = Group 3: 50 mg/kg Compound A per oral once daily
[13] = Compound A 50 mg/kg orally once a day

CCNC(=O)c1noc(-c2cc(C(C)C)c(O)cc2O)c1-c1ccc(CN2CCOCC2)cc1 [AUY922, 5-(2,4-Dihydroxy-5-isopropyl-phenyl)-4-(4-morpholin-4-ylmethyl-phenyl)-isoxazole-3-carboxylic acid ethylamide, reference compound]
T/C % ([1]; AUY922 50 mg/kg free base i.v. twice a week): 60.5% | body weight change [1, 9]: 6.6±2.6% | mean change of tumor volume [1, 9]: 792.2±159 mm^3 | T/C [%] Day 10 [2, 10]: 100.0% | T/C [%] Day 14 [2, 10]: 145.3% | T/C [%] Day 17 [2, 10]: 144.4% | T/C [%] Day 21 [2, 10]: 131.8% | T/C [%] Day 24 [2, 10]: 141.1% | tumor regressions ([3]; AUY922 50 mg/kg i.v. twice a week, single agent): 7% | mean change of tumor volume ([3]; AUY922 50 mg/kg i.v. twice a week, single agent, ±SEM): −15.1±21.4 mm^3 | ΔTV AUY922 (B) ([3]; AUY922 50 mg/kg i.v. twice a week, change of tumor volume (mm^3)): −15.1 | B/C ([3]; ΔTV of AUY922 over vehicle control, Clarke method): −0.061 | T/C ([4]; AUY922 50 mg/kg i.v. twice per week): 4.7% | mean change of tumor volume ([4]; AUY922 50 mg/kg, ±SEM): 17.9±11.0 mm^3 | T/C ([5]; AUY922 50 mg/kg): 14% | mean change of tumor volume ([5]; AUY922 50 mg/kg, ±SEM): 27.4±10.2 mm^3 | T/C ([6]; AUY922 50 mg/kg 2q.w. i.v.): 57%

Cc1nc(NC(=O)N2CCC[C@H]2C(N)=O)sc1-c1ccnc(C(C)(C)C(F)(F)F)c1 [Compound A, (S)-Pyrrolidine-1,2-dicarboxylic acid 2-amide 1-({4-methyl-5-[2-(2,2,2-trifluoro-1,1-dimethyl-ethyl)-pyridin-4-yl]-thiazol-2-yl}-amide)]
stability of suspension ([7]; Compound A in NMP/PEG300/Solutol HS15/water (10:30:20:40% vol/vol)): stable for one week | stability of suspension ([7]; Compound A suspension in 0.5% Methylcellulose): stable for one week | T/C % ([1]; Compound A 12.5 mg/kg p.o. once daily, 12 days, day 23): 39.4% | mean change of tumor volume ([1]; Compound A 12.5 mg/kg p.o. once daily): 515±85 mm^3 | T/C % ([1]; Compound A 25 mg/kg p.o. once daily, 12 days, day 23): 35.5% | mean change of tumor volume ([1]; Compound A 25 mg/kg p.o. once daily): 465±111 mm^3 | T/C % ([1]; Compound A 50 mg/kg p.o. once daily, 12 days, day 23): 7.1% | mean change of tumor volume ([1]; Compound A 50 mg/kg p.o. once daily): 93±77 mm^3 | T/C [%] Day 10 [2, 11]: 100.0% | T/C [%] Day 14 [2, 11]: −7.1% | T/C [%] Day 17 [2, 11]: 74.0% | T/C [%] Day 21 [2, 11]: 40.6% | T/C [%] Day 24 [2, 11]: 47.5% | T/C [%] Day 10 [2, 12]: 100.0% | T/C [%] Day 14 [2, 12]: −49.3% | T/C [%] Day 17 [2, 12]: −2.7% | T/C [%] Day 21 [2, 12]: −40.1% | T/C [%] Day 24 [2, 12]: −10.9% | T/C ([3]; Compound A 50 mg/kg orally once a day, single agent): 4.2% | ΔTV Cmpd. A (A) ([3]; Compound A 50 mg/kg orally once a day, change of tumor volume (mm^3)): 1.4 | A/C ([3]; ΔTV of Compound A over vehicle control, Clarke method): 0.006 | T/C ([4]; Compound A 12.5 mg/kg orally once a day, not statistically significant): 30.3% | mean change of tumor volume (mm^3±SEM) ([4]; Compound A 12.5 mg/kg): 114.9±43.9 mm^3 | regressions [4, 13]: 1.2% | mean change of tumor volume (mm^3±SEM) ([4]; Compound A 50 mg/kg): −2.3±15.2 mm^3 | body weight change ([8]; 12.5 mg/kg): 5.3±1.4% | body weight change ([8]; 25 mg/kg): 2.2±1.1% | body weight change ([8]; 50 mg/kg): −1.1±1.6% | T/C ([5]; Compound A 12.5 mg/kg orally once a day): 37.8% | mean change of tumor volume (mm^3±SEM) ([5]; Compound A 12.5 mg/kg): 73.9±17.6 mm^3 | regressions [5, 13]: 6.4% | mean change of tumor volume (mm^3±SEM) ([5]; Compound A 50 mg/kg): −13.3±6.7 mm^3 | T/C ([6]; Compound A 25 mg/kg q.d. p.o.): 11% | T/C ([6]; Compound A 50 mg/kg q.d. p.o.): 10%
